Test system: BCBL-1 cells
Conditions: MTT, compared to Mut d1-1 control peptide
From the text: FIG. 8. Amino acid conservation among different gamma-herpesviral transactivator proteins. […] DE; D substitute to glutamic acid, DS: D substituted for serine. ST; serine substituted for threonine (marked in red).
Amino acid sequence alignment identified homologous protein sequences in other gamma-herpesvirus protein sequence (The Top table in FIG. 8a, also shown in FIG. 2). Based on their alignment, “non-natural” protein sequences were generated by substituting specific amino acids (The peptides are: Wt d1-1, DS 3-1, DE 3-1, and Mut d1-1 (control peptide) from the top to the bottom in the Bottom Table in FIG. 8a). Those four peptides were used in MTT assays in FIG. 8b to examine the effects on cell growth of BCBL-1 […] effusion lymphoma (PEL) cell line. Also tested are three D-amino acid substitutions first two amino acids and c-terminal amino acid (ST d3-1), in comparison with one D-amino acid peptide (N-terminus) (Wt d3-1).

Substance | killing of BCBL-1 cells in vitro
d-Arg-KKRR-Ornithine-RRR-B-alanine-LSSILQGLYQL-d-Asp-d Ser [DS 3-1] | killed BCBL-1 cells in vitro at similar efficacies
d-Arg-KKRR-Ornithine-RRR-B-alanine-LSTILQGLYQL-d-Asp-d Thr [ST d3-1] | killed BCBL-1 cells in vitro at similar efficacies
d-Arg-KKRR-Ornithine-RRR-B-alanine-LSSILQGLYQL-d-Asp-d Thr [Wt d3-1] | killed BCBL-1 cells in vitro at similar efficacies
d-Arg-KKRR-Ornithine-RRR-β-alanine-LSSILQGLYQLDT [Wt d1-1] | killed BCBL-1 cells in vitro at similar efficacies
d-Arg-KKRR-Ornithine-RRR-B-alanine-LSSILQGLYQL-d-Asp-d Glu [DE 3-1] | killed BCBL-1 cells in vitro at similar efficacies

Source: patent US12528840B2, “Transcription active complex targeting cancer drug from viral protein sequence” (The Regents of the University of California, priority 2020, dated 2026)
